Data from patent US9938250B2, “Antifibrotic effects of oxetanyl sulfoxides” (University of Pittsburgh—Of the Commonwealth System of …, priority 2015, dated 2018).
“Also recorded” adds a separate entry of the source.

Columns and labels:
[1] = discussion, comparison of DMSO with MMS-350; cited from earlier work
[2] = tested on: endothelial and alveolar type II cells; settings: cells cultured from lung tissues of mice following thoracic irradiation; Kalash et al In vivo 2013; cited from earlier work
experimental mice = settings: cited from earlier work
[3] = Aqueous solubility, statement only; type: physicochemical
C57BL/6J mice = experiment: Bleomycin-induced pulmonary fibrosis in mice; type: in vivo
Description: Pulmonary fibrosis was induced in male 6- to 8-week-old C57BL/6J mice by intratracheal administration of 1 mg/kg of Bleomycin (Enzo) in a total volume of 50 uL. Mice were orally administered either 200 uL of PBS or MMS-350 (2%) on a daily basis and lungs were harvested after 5 and 14 days. Right lungs were fixed in 10% neutralized formalin and paraffin embedded. Left lungs were frozen for hydroxyproline assay and total RNA extraction.
Six-micrometer sections of paraffin-embedded mouse lung tissues were stained with H&E and images were taken on an Olympus Provis III microscope (Olympus America Inc.) with identical settings.
Hydroxyproline assay. The hydroxyproline content of mouse lung tissues obtained on day 14 was measured as described (41) and adjusted by lung weight.
Frozen mouse lung tissues obtained on day 5 were placed in 1.5 mL of RNase free Red Bead Lysis Kit tubes (Next Advance) containing 500 uL of TRIzol® Reagent (Life Technologies) and homogenized using BBX24 Bullet Blender® (Next Advance). Total RNA was extracted and purified with RNeasy Mini Kit (Qiagen). Reverse transcription was performed with SuperScript II (Invitrogen) followed by quantitative polymerase chain reaction (PCR) amplification with the TaqMan method (ABI Prism 7300; Applied Biosystems). Premixed PCR primers and TaqMan probes for mouse collagen 1A2 and GAPDH were obtained from Applied Biosystems. Gene expression levels were normalized to GAPDH and compared with the 2^−ΔΔCt method.

[4] = tested on: primary human fibroblasts; experiment: TGFβ-induced fibrotic markers in primary human lung fibroblasts, immunoblotting; type: cell-based
Description: All tissues were obtained under a protocol approved by the Institutional Review Board of the University of Pittsburgh and with written consent. Primary human fibroblasts were cultured from the lung tissues of normal donors and patients undergoing lung transplantation. Fibroblasts were grown in Dulbecco's modified Eagle's medium (DMEM) supplemented with 10% fetal bovine serum (FBS), 100 U/mL penicillin, […] streptomycin and […] amphotericin B, and maintained at 37° C. in 5% CO2 humidified incubator. Three strains of normal primary human fibroblasts were plated on 6-well plates at a seeding density of 2.5×10^5 cells per well. Cells were serum starved for 6-16 h and treated with vehicle, TGFβ (10 ng/mL), MMS-350 (0.5 mg/mL), or TGFβ+MMS-350. Experiments using KRL507-031 were performed similarly. The cell lysates and culture supernatants were harvested 72 h after treatment and analyzed by immunoblotting.
Fibroblasts were rinsed with 1× PBS, scraped into 100 μL of 2×-sodium dodecyl sulfate (SDS) sample buffer, and boiled for 5 min. Equal protein amounts of cell lysates or supernatants were resolved on 10-12% sodium dodecyl sulfate polyacrylamide (SDS-PAGE) gels. Proteins were transferred to 0.2 μm nitrocellulose membranes (Whatman, Germany) and blocked with 5% nonfat dry milk in TBS-Tween 20 for 1 h at room temperature. Membranes were incubated with primary antibodies overnight at 4° C. followed by horseradish peroxidase-conjugated secondary antibodies for 1 h at room temperature. Signals were detected with enhanced chemiluminescence (Perkin Elmer Life Sciences, Inc., Boston, Mass.) and imaged with the FluorChem E digital imaging system from Protein Simple (Santa Clara, Calif.). Results were analyzed using the accompanying software Alphaview.

[5] = TGFβ 10 ng/mL + MMS-350 0.5 mg/mL vs TGFβ1 alone, 72 h

Structure (SMILES) | log P (lipophilicity) [1] | pro-fibrotic gene expression [2] | mitigation of ionizing irradiation (experimental mice; Goff et al 2013) | radiation-induced pulmonary fibrosis (experimental mice; Kalash et al Radiat Res 2013) | survival of irradiated mice (experimental mice; Kalash et al Radiat Res 2013) | aqueous solubility [3] | Collagen α2I mRNA levels in lung (C57BL/6J mice; MMS-350 (2%) oral daily, day 5) | hydroxyproline levels in lung (C57BL/6J mice; MMS-350 (2%) oral daily, day 14) | lung fibrosis, histology (H&E) (C57BL/6J mice; bleomycin 1 mg/kg intratracheal, MMS-350 (2%) 200 uL oral daily, day 14) | overall survival (C57BL/6J mice; bleomycin + MMS-350, bleomycin-treated mice 62.5%) | toxicity (C57BL/6J mice; given orally) | weight loss (C57BL/6J mice; vs mice treated with bleomycin alone, data not shown) | CTGF secreted protein [4, 5] | IGFBP3 (BP3) secreted protein [4, 5] | collagen 1α1 (Col1) protein [4, 5] | fibronectin (FN) protein [4, 5] | α-SMA protein (marker of fibroblast activation) [4, 5] | anti-fibrotic activity on delayed addition ([4]; compound added 30 min to 6 h after TGFβ)
C[S+](C)[O-] [DMSO, dimethyl sulfoxide, reference compound] | -1.4 |  |  |  |  |  |  |  |  |  |  |  |  |  |  |  |  | 
CC1(C[S+]([O-])CC2(C)COC2)COC1 [MMS-350, 3,3′-Sulfinylbis(methylene)bis(3-methyloxetane)] | −0.7 | reduce pro-fibrotic gene expression | mitigator of ionizing irradiation | ameliorate radiation-induced pulmonary fibrosis | increase survival | exquisite aqueous solubility; also recorded: exceptionally high aqueous solubility | reduced | significant reduction | ameliorated fibrosis histologically | 87.5% | no toxicity | less weight loss | significantly decreased | significantly decreased | significantly decreased | significantly decreased | significantly decreased | profound anti-fibrotic activity
